Test system: 415267-285-R-J2-PDC complex spheroid viability
Assay: Anticancer human tumor 415267-285-R-J2-PDC patient-derived breast carcinoma cell line growth inhibition [POLQ]
Conditions: for IC50: curve of first compound; for viability, T/C: stronger effect = lower value
Experimental: Multicellular complex tumor spheroid response to Polymerase (POL) inhibitors (novobiocin, ART-558, RP6685) in combination with a variety of drugs and investigational agents in selected tumor cell lines
The POL inhibitors (novobiocin, ART-558, and RP6685) were evaluated both individually and in combination with standard of care and investigational anticancer small molecules within a complex spheroid model of solid tumors. . Complex spheroids include a stromal component modeled by human endothelial cells (HUVEC) and fibroblasts modeled by human mesenchymal stem cells (MSCs). The concentration ranges selected for each drug and investigational agent were based upon clinically achievable concentrations if the clinical Cmax of the agent was known.
Compounds. The drugs and investigational agents: novobiocin (NSC847541), ART-558 (NSC835418), RP-6685 (NSC848927), peposertib (NSC802822), ceralasertib (NSC780249), elimusertib (NSC800525), camonsertib (NSC841442), AZD-1390 (NSC803789), olaparib (NSC753686), talazoparib (NSC767125), rucaparib (NSC756644), sotorasib (NSC818433), MRTX-1133 (NSC836407), SN-38 (NSC673596), topotecan (NSC609699), epotoside (NSC141540), doxorubicin (NSC123127), gemcitabine (NSC613327), 5-fluorouracil (NSC19893), paclitaxel (NSC125973), vemurafenib (NSC761431), MSA-2 (NSC828583), SN-011 (NSC837082), adavosertib (NSC754352), prexasertib (NSC758257), carboplatin (NSC241240) and oxaliplatin (NSC266046), were obtained from the National Cancer Institute (NCI) Developmental Therapeutics Program Chemical Repository (21). The FDA-approved anticancer drug set is available from the Developmental Therapeutics Program at https://dtp.cancer.gov/organization/dscb/obtaining/. […] The stock solutions were prepared in dimethyl sulfoxide (DMSO, Sigma-Aldrich, St. Louis, MO, cat. D2650), except for the platinum compounds which were prepared in saline (Quality Biological, Gaithersburg, MD, cat. 114-055-101), at 800-fold the tested concentration and stored at -70 degrees C prior to their use. All drugs and investigational agents were tested over a range starting from a high concentration at or near the clinical Cmax and decreasing in half-log increments. If the clinical Cmax for an agent had not been determined, the highest concentration tested was 10 microM, except for SN-38, which was tested at a high concentration of 1 microM.
Cell Culture. All cells were maintained in an incubator at 37 degrees C and 5% CO2 with 95% humidity. The PDC lines were cultured according to standard operating procedures established by the NCI PDMR (https://pdmr.cancer.gov). Table 3 of the manuscript, lists the cell lines along with the number of the three cell types plated to form the mct-spheroids and media for tumor cell growth. After thawing, all PDC lines, except 997537-175-T-J1-PDC and 415267-285-R-J2-PDC, were cultured in Matrigel-coated flasks prepared with a working solution of 1X Ham's F-12 nutrient mix, without supplementation (Thermo Fisher Scientific, cat. 11765054), 100 U/mL penicillin-streptomycin (Thermo Fisher Scientific, cat. 15140122), and 2.5% Matrigel (Corning Inc., Corning, NY, cat. 354248) for the first three passages. The two PDC lines 997537-175-T-J1-PDC and 415267-285-R-J2-PDC were cultured on uncoated flasks. The 857933-349-R-J2-PDC line was cultured in 6C/Colon 1B media containing advanced DMEM/F-12 (Thermo Fisher Scientific, cat. 12634028), 10 mM HEPES (Thermo Fisher Scientific, cat. 15630080), 1X GlutaMAX supplement (Thermo Fisher Scientific, cat. 35050061), 0.1 mg/mL primocin (InvivoGen, San Diego, CA, cat. ant-pm-2), 10% defined fetal bovine serum, heat inactivated (HyClone Laboratories Inc., Logan, UT, cat. SH30070.03HI), 50% L-WRN conditioned media (ATCC, cat. CRL-3276), 1.25 mM N-Acetyl-L-cysteine (Sigma-Aldrich, cat. A9165), 10 mM nicotinamide (Sigma-Aldrich, cat. N0636), 1X B-27 supplement (Thermo Fisher Scientific, cat. 17504044), 1X N-2 supplement (Thermo Fisher Scientific, cat. […]

[1] = second compound 0.0316 µM, first compound 0.0316 µM
[2] = second compound 0.0316 µM, first compound 0.1 µM
[3] = second compound 0.0316 µM, first compound 0.316 µM
[4] = second compound 0.0316 µM, first compound 1 µM
[5] = second compound 0.1 µM, first compound 0.0316 µM
[6] = second compound 0.1 µM, first compound 0.1 µM
[7] = second compound 0.1 µM, first compound 0.316 µM
[8] = second compound 0.1 µM, first compound 1 µM
[9] = second compound 0.316 µM, first compound 0.0316 µM
[10] = second compound 0.316 µM, first compound 0.1 µM
[11] = second compound 0.316 µM, first compound 0.316 µM
[12] = second compound 0.316 µM, first compound 1 µM
[13] = second compound 1 µM, first compound 0.0316 µM
[14] = second compound 1 µM, first compound 0.1 µM
[15] = second compound 1 µM, first compound 0.316 µM
[16] = second compound 1 µM, first compound 1 µM
[17] = second compound 3.16 µM, first compound 0.0316 µM
[18] = second compound 3.16 µM, first compound 0.1 µM
[19] = second compound 3.16 µM, first compound 0.316 µM
[20] = second compound 3.16 µM, first compound 1 µM
[21] = second compound 10 µM, first compound 0.0316 µM
[22] = second compound 10 µM, first compound 0.1 µM
[23] = second compound 10 µM, first compound 0.316 µM
[24] = second compound 10 µM, first compound 1 µM
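Also: spheroids exposed to compounds for one week before readout.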
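For viability, T/C in this document: luminescence used as stand-in measure of viable cells; 100% = DMSO vehicle control viability.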

`C=CCn1c(=O)c2cnc(Nc3ccc(N4CCN(C)CC4)cc3)nc2n1-c1cccc(C(C)(C)O)n1` + Cc1cccc(N(C)C(=O)C2C(O)CCN2c2nc(C)cc(C(F)(F)F)c2C#N)c1 was tested, and the IC50 (second compound 0.0316 µM) was 444 nM, the IC50 (second compound 0.1 µM) was 475 nM and the IC50 (second compound 0.316 µM) was 460 nM. It also gave an IC50 (second compound 1 µM) of 486 nM, an IC50 (second compound 3.16 µM) of 452 nM and an IC50 (second compound 10 µM) of 425 nM. It also gave a viability, T/C (second compound 0.0316 µM, first compound 0.00316 µM) of 103%, a viability, T/C (second compound 0.0316 µM, first compound 0.01 µM) of 102% and a viability, T/C [1] of 104%. For the same molecule, the viability, T/C [2] was 116%, the viability, T/C [3] was 67.6% and the viability, T/C [4] was 8%. For the same molecule, the viability, T/C (second compound 0.1 µM, first compound 0.00316 µM) was 96.6%, the viability, T/C (second compound 0.1 µM, first compound 0.01 µM) was 102% and the viability, T/C [5] was 106%. It also gave a viability, T/C [6] of 112%, a viability, T/C [7] of 73.6% and a viability, T/C [8] of 6.74%. For the same molecule, the viability, T/C (second compound 0.316 µM, first compound 0.00316 µM) was 103%, the viability, T/C (second compound 0.316 µM, first compound 0.01 µM) was 105% and the viability, T/C [9] was 109%. It also gave a viability, T/C [10] of 94.5%, a viability, T/C [11] of 71% and a viability, T/C [12] of 7.48%. For the same molecule, the viability, T/C (second compound 1 µM, first compound 0.00316 µM) was 103%, the viability, T/C (second compound 1 µM, first compound 0.01 µM) was 103% and the viability, T/C [13] was 107%. For the same molecule, the viability, T/C [14] was 108%, the viability, T/C [15] was 76.1% and the viability, T/C [16] was 6.25%. It also gave a viability, T/C (second compound 3.16 µM, first compound 0.00316 µM) of 102%, a viability, T/C (second compound 3.16 µM, first compound 0.01 µM) of 109% and a viability, T/C [17] of 108%. The viability, T/C [18] was 123%, the viability, T/C [19] was 69% and the viability, T/C [20] was 7.86%. For the same molecule, the viability, T/C (second compound 10 µM, first compound 0.00316 µM) was 108%, the viability, T/C (second compound 10 µM, first compound 0.01 µM) was 106% and the viability, T/C [21] was 122%. The viability, T/C [22] was 114%, the viability, T/C [23] was 64.1% and the viability, T/C [24] was 9.37%.
For `CC(C)n1c(=O)n(C)c2cnc3cc(F)c(-c4ccc(OCCCN5CCCCC5)nc4)cc3c21` + Cc1cccc(N(C)C(=O)C2C(O)CCN2c2nc(C)cc(C(F)(F)F)c2C#N)c1, the IC50 (second compound 0.0316 µM) was over 10000 nM, the IC50 (second compound 0.1 µM) was over 10000 nM and the IC50 (second compound 0.316 µM) was over 10000 nM. It also gave an IC50 (second compound 1 µM) of over 10000 nM, an IC50 (second compound 3.16 µM) of over 10000 nM and an IC50 (second compound 10 µM) of over 10000 nM. For the same molecule, the viability, T/C [1] was 88.5%, the viability, T/C [2] was 107% and the viability, T/C [3] was 100%. For the same molecule, the viability, T/C [4] was 110%, the viability, T/C (second compound 0.0316 µM, first compound 3.16 µM) was 111% and the viability, T/C (second compound 0.0316 µM, first compound 10 µM) was 93.8%. For the same molecule, the viability, T/C [5] was 89.7%, the viability, T/C [6] was 88.6% and the viability, T/C [7] was 105%. It also gave a viability, T/C [8] of 101%, a viability, T/C (second compound 0.1 µM, first compound 3.16 µM) of 101% and a viability, T/C (second compound 0.1 µM, first compound 10 µM) of 80.6%. It also gave a viability, T/C [9] of 103%, a viability, T/C [10] of 98.5% and a viability, T/C [11] of 105%. The viability, T/C [12] was 105%, the viability, T/C (second compound 0.316 µM, first compound 3.16 µM) was 111% and the viability, T/C (second compound 0.316 µM, first compound 10 µM) was 92.5%. It also gave a viability, T/C [13] of 102%, a viability, T/C [14] of 94.8% and a viability, T/C [15] of 108%. For the same molecule, the viability, T/C [16] was 109%, the viability, T/C (second compound 1 µM, first compound 3.16 µM) was 104% and the viability, T/C (second compound 1 µM, first compound 10 µM) was 87.5%. For the same molecule, the viability, T/C [17] was 94.4%, the viability, T/C [18] was 111% and the viability, T/C [19] was 96.7%. The viability, T/C [20] was 105%, the viability, T/C (second compound 3.16 µM, first compound 3.16 µM) was 87.5% and the viability, T/C (second compound 3.16 µM, first compound 10 µM) was 81.9%. It also gave a viability, T/C [21] of 99.1%, a viability, T/C [22] of 86.1% and a viability, T/C [23] of 90.4%. It also gave a viability, T/C [24] of 96.8%, a viability, T/C (second compound 10 µM, first compound 3.16 µM) of 87.6% and a viability, T/C (second compound 10 µM, first compound 10 µM) of 81%.
